The record followed here is patent US11111238B2, “Coumarin derivatives, processes for their preparation and uses thereof for the treatment of cancer” (Lead Discovery Center GmbH, priority 2017, dated 2021).

The structures appear in SMILES notation.

In general, IC50 refers to the point on the concentration scale where inhibition reaches its midpoint.

Test [1] has as its target mitochondrial RNA-polymerase (POLRMT) (Mus musculus, UniProt Q8BKF1). In words: Homogeneous TR-FRET assay for mitochondrial transcription activity. It is filed as biochemical. Conditions: homogeneous TR-FRET assay according to Example 4; activity class. In short, it runs like this:
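TR-FRET read-out (340 nm excitation, 665 nm emission) of a 407 bp transcript captured by Eu-streptavidin/biotin donor and ATTO647N acceptor DNA probes after EDTA stop. Transcription ran 2 h at RT with 500 μM […], mouse POLRMT/TFAM/TFB2M and LSP-plasmid template, after 10 min compound preincubation (10 μM or dilution series).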
In general terms: TR-FRET usually uses a lanthanide donor and a delayed reading to cut background.

For test [2], the system named is mitochondrial transcription (7S RNA) in HeLa cells. Description: Quantitative real time-PCR assay of inhibition of mitochondrial transcription (cellular qPCR assay IMT). Conditions: Homo sapiens, 4 h compound incubation, qRT-PCR according to Example 5, activity class. It is filed as cell-based. As to the method:
Quantitative real-time PCR (qRT-PCR), based on the TagMan™ (Thermo Fisher Scientific, Waltham Mass.) technology, was carried out essentially as described in (Heid et al., 1996). HeLa cells were plated one day before compound treatment in RPMI medium supplemented with 10% Fetal Calf Serum and 2 mM L-glutamine. Cells were incubated with dilution series of compounds or vehicle (DMSO) for 4 h, prior to harvest and extraction of the RNA using the RNeasy Mini Kit (Qiagen, Hilden D), according to the manufacturer's instructions. RNA concentrations were measured spectroscopically, using a NanoDrop-2000 (Thermo Fisher Scientific, Waltham Mass.) and normalized prior to cDNA synthesis, using a ‘High-Capacity cDNA Reverse Transcription Kit’ (Thermo Fisher Scientific, Waltham Mass.). qRT-PCR was carried out using the ‘TaqMan Fast Advance Master Mix’ (Thermo Fisher Scientific, Waltham Mass.) on a 7500 Fast Real-Time PCR machine (Applied Biosystems, Foster City Calif.)
For these measurements, three genes were used to compare the effect of the scrutinized compounds in relation to their concentration. The POLRMT-gene was used to detect potential influences on nuclear transcription. Mitochondrial transcription in vivo was monitored by measurements 7S RNA. The TBP (TATA-box binding protein) gene was employed as the control (housekeeping gene) during qRT-PCR. The short-lived mitochondrial 7S RNA, which is not post-transcriptionally stabilized, allowed us to monitor rapid changes in mitochondrial transcription activity following compound addition. Biological triplicates were analyzed using the comparative CT Method (ΔΔCt) method (Bubner and Baldwin, 2004) and reported as Rq % values (Rq=Relative quantification=2-ΔΔCt).
Background: Quantitative PCR measures a nucleic acid by following its amplification.

Sequence of mitochondrial RNA-polymerase (POLRMT) (Q8BKF1 42-1207): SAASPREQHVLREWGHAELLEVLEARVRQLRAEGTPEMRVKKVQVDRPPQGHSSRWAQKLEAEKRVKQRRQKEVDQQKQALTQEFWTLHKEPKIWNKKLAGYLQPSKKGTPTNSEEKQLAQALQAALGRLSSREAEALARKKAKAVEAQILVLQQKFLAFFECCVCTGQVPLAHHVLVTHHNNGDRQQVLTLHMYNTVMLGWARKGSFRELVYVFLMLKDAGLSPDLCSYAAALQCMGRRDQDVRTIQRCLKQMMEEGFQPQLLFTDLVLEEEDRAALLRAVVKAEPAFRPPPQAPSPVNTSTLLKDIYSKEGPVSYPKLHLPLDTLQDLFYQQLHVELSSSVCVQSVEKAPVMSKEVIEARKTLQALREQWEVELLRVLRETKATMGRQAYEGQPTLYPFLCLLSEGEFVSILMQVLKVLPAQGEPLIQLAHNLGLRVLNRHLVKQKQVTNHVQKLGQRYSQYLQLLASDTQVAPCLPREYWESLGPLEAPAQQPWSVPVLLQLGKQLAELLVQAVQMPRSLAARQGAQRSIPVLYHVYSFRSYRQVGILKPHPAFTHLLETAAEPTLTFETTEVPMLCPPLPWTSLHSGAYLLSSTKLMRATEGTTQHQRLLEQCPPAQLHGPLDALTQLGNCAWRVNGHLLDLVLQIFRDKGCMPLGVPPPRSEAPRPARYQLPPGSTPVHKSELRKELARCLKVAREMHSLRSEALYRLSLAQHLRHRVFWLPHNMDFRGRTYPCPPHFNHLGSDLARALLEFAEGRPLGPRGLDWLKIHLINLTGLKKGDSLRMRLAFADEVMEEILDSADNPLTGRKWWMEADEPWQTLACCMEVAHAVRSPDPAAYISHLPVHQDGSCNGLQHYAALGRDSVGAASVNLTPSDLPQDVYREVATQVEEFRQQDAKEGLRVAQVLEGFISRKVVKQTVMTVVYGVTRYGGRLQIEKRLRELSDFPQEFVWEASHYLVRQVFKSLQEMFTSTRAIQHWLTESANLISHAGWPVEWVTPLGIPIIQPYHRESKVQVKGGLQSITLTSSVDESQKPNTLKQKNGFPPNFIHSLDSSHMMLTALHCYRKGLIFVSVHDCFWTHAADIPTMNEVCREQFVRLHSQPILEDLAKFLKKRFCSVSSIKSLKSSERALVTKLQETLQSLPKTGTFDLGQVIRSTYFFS

For `Cc1cscc1-c1cc(=O)oc2cc(O[C@H](C)C(=O)N3CCCCC3)ccc12` [Compound 183, 7-[(1R)-1-methyl-2-oxo-2-(1-piperidyl)ethoxy]-4-(4-methyl-3-thienyl)chromen-2-one], the concentration for half-maximal inhibition (IC50) in test [1] is below 20 nM; in test [2], below 10 nM.
For the molecule `CC(Oc1ccc2c(-c3ccccc3Cl)cc(=O)oc2c1)C(=O)N1CCCC(C)(C(=O)O)C1` (centres unmarked) [Compound 54, 1-[2-[4-(2-chlorophenyl)-2-oxo-chromen-7-yl]oxypropanoyl]-3-methyl-piperidine-3-carboxylic acid], the half-maximal inhibitory concentration (IC50) in test [1] was below 20 nM; in test [2], below 10 nM.
As for `C[C@@H](Oc1ccc2c(-c3ccccc3Cl)cc(=O)oc2c1)C(=O)N1CCC[C@H](C(=O)O)C1` [Compound 23, (3S)-1-[(2R)-2-[4-(2-chlorophenyl)-2-oxo-chromen-7-yl]oxypropanoyl]piperidine-3-carboxylic acid], the IC50 in test [1] is below 20 nM; in test [2] it was below 10 nM.
For `CC(C)NC(=O)C(C)Oc1ccc2c(-c3ccccc3Cl)cc(=O)oc2c1` (centres unmarked) [Compound 70, 2-[4-(2-chlorophenyl)-2-oxo-chromen-7-yl]oxy-N-isopropyl-propanamide], the IC50 in test [1] was 20 to 100 nM; in test [2], below 10 nM.
`C[C@@H](Oc1ccc2c(-c3ccc(F)cc3Cl)cc(=O)oc2n1)C(=O)N1CCC[C@H](C(=O)O)C1` [Compound 173, (3S)-1-[(2R)-2-[4-(2-chloro-4-fluoro-phenyl)-2-oxo-pyrano[2,3-b]pyridin-7-yl]oxypropanoyl]piperidine-3-carboxylic acid]: the IC50 in test [1] lay in the range of 20 to 100 nM; in test [2], 50 to 500 nM.
As for `Cc1ccccc1-c1cc(=O)oc2cc(OC(C)C(=O)N3CCCC(c4nn[nH]n4)C3)ccc12` (centres unmarked) [Compound 42, 7-((1-(3-(2H-tetrazol-5-yl)piperidin-1-yl)-1-oxopropan-2-yl)oxy)-4-(o-tolyl)-2H-chromen-2-one], the 50% inhibitory concentration (IC50) in test [1] is below 20 nM; in test [2], 10 to 50 nM.
Turning to `COC(=O)C[C@H]1CCCN(C(=O)[C@@H](C)Oc2ccc3c(-c4ccc(F)cc4Cl)cc(=O)oc3c2)C1` [Compound 104, methyl 2-[(3R)-1-[(2R)-2-[4-(2-chloro-4-fluoro-phenyl)-2-oxo-chromen-7-yl]oxypropanoyl]-3-piperidyl]acetate], the values for the IC50 in test [1] and in test [2] were below 20 nM and 10 to 50 nM, respectively.
For `Cc1ccccc1-c1cc(=O)oc2cc(OC(C)C(=O)NC(C)C)ccc12` (centres unmarked) [Compound 62, N-isopropyl-2-[4-(o-tolyl)-2-oxo-chromen-7-yl]oxy-propanamide], in that order: 20 to 100 nM and below 10 nM.
Regarding `C[C@@H](Oc1ccc2c(-c3ccc(F)cc3Cl)cc(=O)oc2c1)C(=O)N1CCC[C@H](C(=O)OC(C)(C)C)C1` [Compound 118, tert-butyl (3S)-1-[(2R)-2-[4-(2-chloro-4-fluoro-phenyl)-2-oxo-chromen-7-yl]oxypropanoyl] piperidine-3-carboxylate], the half-maximal inhibitory concentration (IC50) in test [1] was in the range of 20 to 100 nM; in test [2], 50 to 500 nM.
The corresponding values for `CC(Oc1ccc2c(-c3ccccc3Cl)cc(=O)oc2c1)C(=O)N1CCC(CC(=O)O)CC1` (centres unmarked) [Compound 59, 2-[1-[2-[4-(2-chlorophenyl)-2-oxo-chromen-7-yl]oxypropanoyl]-4-piperidyl]acetic acid] are 20 to 100 nM and 10 to 50 nM.
`COC(=O)C[C@@H]1CCCN(C(=O)[C@@H](C)Oc2ccc3c(-c4ccc(F)cc4Cl)cc(=O)oc3c2)C1` [Compound 105, methyl 2-[(3S)-1-[(2R)-2-[4-(2-chloro-4-fluoro-phenyl)-2-oxo-chromen-7-yl]oxypropanoyl]-3-piperidyl]acetate]: the IC50 was 20 to 100 nM in test [1] and 10 to 50 nM in test [2].
With `C[C@@H](Oc1ccc2c(-c3ccc(F)cc3Cl)cc(=O)oc2c1)C(=O)N1CCC[C@H](C(=O)OCCN2CCOCC2)C1` [Compound 119, 2-morpholinoethyl (3S)-1-[(2R)-2-[4-(2-chloro-4-fluoro-phenyl)-2-oxo-chromen-7-yl]oxypropanoyl]piperidine-3-carboxylate], the concentration for half-maximal inhibition (IC50) in test [2] is below 10 nM.
